Structures can show the parent of a compound that is named as a salt. Where two headings read alike, the source gives them in different places.
Tests used:
[1] = test system: phenylquinone-induced writhing in the mouse; assay: Phenylquinone-induced writhing test in the mouse; assay type: in vivo; conditions: for ED50: Mus musculus; for analgesic activity (in words): mouse, in vivo
Protocol: Compounds of formula I, and homologous and analogous compounds, were tested for analgesic activity by means of the phenylquinone-induced writhing test in the mouse, using the known analgesic, nefopam (5 methyl-1-phenyl-3,4,5,6-tetrahydro-1H-2,5-benzoxazocine), as a comparison standard. The method used was essentially that described by Siegmund et al. [Proc. Soc. exp. Biol. N. Y. 95, 729 (1957)]. Compounds were administered either subcutaneously (15 min) or orally (25 min) prior to the intraperitoneal injection of phenylquinone (2 mg/kg). […] The dose which produced a 50 percent reduction in the number of writhes, as compared to the control group, was called the ED50.
BL-R845 and nefopam were compared in additional phenylquinone-induced writhing tests in the mouse and rat, by various routes of administration.

[2] = test system: cough response in male guinea-pigs; assay: Antitussive activity in male guinea-pigs (electrically stimulated cough); assay type: in vivo, guinea-pig; conditions: for inhibition in vivo at 10 mg/kg: Cavia porcellus, sc, 10 mg./kg. subcutaneously, cough tested at 30, 60 and 120 min, values of 30 or less not significantly different from saline controls, considered inactive or insufficiently active; for antitussive activity (in words): guinea pig, in vivo
Protocol: Compounds of formula I, and homologous and analogous compounds, were also tested for antitussive activity in male guinea-pigs, using a modification of the procedure of Friebel and Hahn [Med. Pharmacol. exp., 14, 78 (1966)]. Under general anesthesia, two stainless steel wires (0.2 mm diameter), stripped of their enamel insulation at the points of contact with the trachea, were wrapped around the trachea about 8 mm apart and then threaded under the skin and out through the back of the neck, one on each side. After 24 hrs, test animals were placed in a clear plastic cage and the cough threshold was determined by means of electrical stimulation. The following stimulation parameters were used: delay -- 0.01 msec, duration -- 0.6 msec and frequency -- 300 Hz. The minimal voltage (range 60-120 V) necessary to elicit a cough in less than 6 sec was determined. Each guinea-pig was stimulated 5 times at 30 sec intervals employing the predrug stimulation parameters at 30, 60 and 120 min following drug administration. A test animal was considered to be protected if more than 6 sec were required to produce a cough. Compounds were administered at a dosage of 10 mg./kg. subcutaneously. The percent inhibition of cough response was calculated as follows: % Inhibition = (A-B)/(A) × 100 a = number of coughs requiring <6 sec. stimulation after saline. B = number of coughs requiring <6 sec. stimulation after drug.

[3] = test system: rodent writhing; assay: Rodent writhing tests; conditions: in vivo
Text: BL-[…] and nefopam were compared in additional phenylquinone-induced writhing tests in the mouse and rat, by various routes of administration. The analgesic profile for BL-[…] and nefopam resembles that of the narcotic antagonist analgesics rather than the narcotic drugs. […] Nevertheless,both BL-[…] and nefopam differ from the antagonist action of naloxone. […] These findings indicate that BL-[…] and nefopam act on different receptor sites from those affected by the antagonist analgesics.

[4] = test system: mouse hot plate; assay: Mouse hot plate (thermal analgesic test); assay type: in vivo; conditions: conventional thermal analgesic test
Text: (§1) The analgesic profile for BL-[…] and nefopam resembles that of the narcotic antagonist analgesics rather than the narcotic drugs. […] Nevertheless,both BL-[…] and nefopam differ from the antagonist action of naloxone. […] These findings indicate that BL-[…] and nefopam act on different receptor sites from those affected by the antagonist analgesics.

[5] = test system: cough in dogs; assay: Antitussive activity in the dog (method of Stefko and Benson); conditions: for ED50: Canis lupus familiaris
[6] = test system: rat tail flick; assay: Rat tail flick (thermal analgesic test); assay type: in vivo; conditions: conventional thermal analgesic test
Text: as §1

[7] = test system: analgesic activity, naloxone antagonism; assay: Block of analgesic activity by naloxone; assay type: in vivo; conditions: naloxone as antagonist
Text: as §1

[8] = test system: phenylquinone-induced writhing in the rat; assay: Phenylquinone-induced writhing test in the rat; assay type: in vivo; conditions: Table 4, rats
Text: BL-[…] and nefopam were compared in additional phenylquinone-induced writhing tests in the mouse and rat, by various routes of administration.

[9] = sc, Table 1, s.c. 15 min before phenylquinone 2 mg/kg i.p., 50 percent reduction in number of writhes vs control, read-out: ED50
[10] = central, Table 4, mice, intraventricular, read-out: Phenylquinone-induced Writhing ED50, mice, intraventricular
[11] = sc, Table 4, mice, subcutaneous, read-out: Phenylquinone-induced Writhing ED50, mice, subcutaneous
[12] = Table 4, mice, oral, read-out: Phenylquinone-induced Writhing ED50, mice, oral
[13] = po, read-out: ED50, antitussive, oral
[14] = sc, read-out: ED50, antitussive, s. c.
[15] = oral, read-out: Phenylquinone-induced Writhing ED50, rats, oral
[16] = sc, subcutaneous, read-out: Phenylquinone-induced Writhing ED50, rats, subcutaneous

SMILES	ED50 [1, 9] [mg/kg]	analgesic activity (in words) [1]	inhibition in vivo at 10 mg/kg [2] [%]	antitussive activity (in words) [2]	ED50 [5, 13] [mg/kg]	ED50 [5, 14] [mg/kg]	other results
CNCCN1CCOc2ccc(Cl)cc2C1c1ccccc1 (stereo not shown) [BL-5366, 7-Chloro-4-(2-methylaminoethyl)-5-phenyl-2,3,4,5-tetrahydro-1,4,-benzoxazepine dihydrochloride]	13	little or no such activity	0	little or no such activity			
CCN(CC)CCN1CCOc2ccc(Cl)cc2C1c1ccccc1.Cl.Cl (stereo not shown) [BL-5372, 7-Chloro-4-(2-diethylaminoethyl)-5-phenyl-2,3,4,5-tetrahydro-1,4-benzoxazepine dihydrochloride]	10	little or no such activity	0	little or no such activity			
Cl.Cl.Clc1ccc2c(c1)C(c1ccccc1)N(CCN1CCCC1)CCO2 (stereo not shown) [BL-5397, 7-Chloro-4-(2-pyrrolidinoethyl)-5-phenyl-2,3,4,5-tetrahydro-1,4-benzoxazepine dihydrochloride]	2.5	valuable analgesic activity	0				
Cl.Cl.Clc1ccc2c(c1)C(c1ccccc1)N(CCN1CCOCC1)CCO2 (stereo not shown) [BL-5405, 7-Chloro-4-(2-morpholinoethyl)-5-phenyl-2,3,4,5-tetrahydro-1,4-benzoxazepine dihydrochloride]	> 40		30				
Cl.Cl.Clc1ccc2c(c1)C(c1ccccc1)N(CCN1CCCCC1)CCO2 (stereo not shown) [BL-5409, 7-Chloro-4-(2-piperidinoethyl)-5-phenyl-2,3,4,5-tetrahydro-1,4-benzoxazepine dihydrochloride]	9		0				
CN1CCN(CCN2CCOc3ccc(Cl)cc3C2c2ccccc2)CC1.Cl.Cl.Cl (stereo not shown) [BL-5451, 7-Chloro-4-[2-(4-methylpiperazino)ethyl]-5-phenyl-2,3,4,5-tetrahydro-1,4-benzoxazepine trihydrochloride]	19		0				
CN(C)CCN1CCOc2ccc(Cl)cc2C1c1ccccc1.Cl.Cl (stereo not shown) [BL-R845, 7-Chloro-4-(2-dimethylaminoethyl)-5-phenyl-2,3,4,5-tetrahydro-1,4-benzoxazepine dihydrochloride]		effective analgesic	48	effective analgesic and antitussive agent	2 to 5	0.2 to 0.5	activity in the rodent writhing tests [3]: good activity; ED50 [1, 10]: 0.31 mg/kg; ED50 [1, 11]: 1.3 mg/kg; ED50 [1, 12]: 11.6 mg/kg; analgesic activity, mouse hot plate [4]: relative lack of analgesic activity; antitussive activity compared with nefopam or codeine ([5]; dog, both routes of administration): more active than nefopam or codeine; analgesic activity, rat tail flick [6]: relative lack of analgesic activity; effect of naloxone on analgesic activity [7]: does not block the analgesic activity; ED50 [8, 15]: 12.8 mg/kg; ED50 [8, 16]: 1 mg/kg
COc1ccc2c3c1O[C@H]1[C@@H](O)C=C[C@H]4[C@@H](C2)N(C)CC[C@@]341 [codeine]					7.8	1.5	
CN1CCOC(c2ccccc2)c2ccccc2C1 (stereo not shown) [nefopam, 5 methyl-1-phenyl-3,4,5,6-tetrahydro-1H-2,5-benzoxazocine, reference compound]			0		> 20	2 to 5	activity in the rodent writhing tests [3]: good activity; ED50 [1, 10]: 0.14 mg/kg; ED50 [1, 11]: 1.1 mg/kg; ED50 [1, 12]: 22 mg/kg; analgesic activity, mouse hot plate [4]: relative lack of analgesic activity; analgesic activity, rat tail flick [6]: relative lack of analgesic activity; effect of naloxone on analgesic activity [7]: does not block the analgesic activity; ED50 [8, 15]: 9.6 mg/kg; ED50 [8, 16]: 1 mg/kg
